# Measurements reported in PubChem BioAssay AID1745844 (Carcinogenic Potency Database (CPDB), 2022).
# Calls of active or inactive are those of the source. The rule behind the calls is not given here.
# Tested on: rodent lifetime carcinogenesis bioassay, tumor incidence TD50
# Experiment: carcinogenic potency in animals, long-term in vivo studies, CPDB compilation (AID 1745844)
structure (smiles),measurement,setting,value
O=S(=O)(O)NC1CCCCC1,TD50,"monkey, strain Cynomolgus [Macaca fascicularis], both sexes, in feed, site: liver, lesion: hepatocellular carcinoma, dosed 1238 weeks, study length 1238 weeks",1250 mg/kg/day
same,TD50,"monkey, strain Cynomolgus [Macaca fascicularis], both sexes, in feed, site: prostate, lesion: adenocarcinoma, dosed 1238 weeks, study length 1238 weeks",35.6 mg/kg/day
same,TD50,"monkey, strain Rhesus [Macaca mulatta], both sexes, in feed, site: any site (literature study), lesion: malignant tumor, dosed 1251 weeks, study length 1251 weeks",3160 mg/kg/day
same,TD50,"monkey, strain Rhesus [Macaca mulatta], both sexes, in feed, site: colon, lesion: adenocarcinoma, dosed 1251 weeks, study length 1251 weeks",764 mg/kg/day
same,TD50,"monkey, strain Rhesus [Macaca mulatta], both sexes, in feed, site: thyroid gland, lesion: papillary adenoma, dosed 1251 weeks, study length 1251 weeks",182 mg/kg/day
same,TD50,"mouse, strain (C3H x RIII)F1 (MTV+), males, in drinking water, site: any site (literature study), lesion: several types, types named in the paper, dosed 104 weeks, study length 104 weeks",772 mg/kg/day
same,TD50,"mouse, strain (C3H x RIII)F1 (MTV+), males, in drinking water, site: liver, lesion: several types, types named in the paper, dosed 104 weeks, study length 104 weeks",1420 mg/kg/day
same,TD50,"mouse, strain (C3H x RIII)F1 (MTV+), males, in drinking water, site: lung, lesion: several types, types named in the paper, dosed 104 weeks, study length 104 weeks",4380 mg/kg/day
same,carcinogen call,"mouse, strain ASH-CS1, females, in feed, site: liver, lesion: one or several types, types not named, dosed 80 weeks, study length 82 weeks",negative (inactive)
same,TD50,"mouse, strain ASH-CS1, females, in feed, site: lung, lesion: adenoma, dosed 80 weeks, study length 82 weeks",228000 mg/kg/day (inactive)
same,TD50,"mouse, strain ASH-CS1, females, in feed, site: reticuloendothelium, lesion: lymphosarcoma, dosed 80 weeks, study length 82 weeks",16700 mg/kg/day (inactive)
same,carcinogen call,"mouse, strain ASH-CS1, males, in feed, site: liver, lesion: one or several types, types not named, dosed 80 weeks, study length 82 weeks",negative (inactive)
same,carcinogen call,"mouse, strain ASH-CS1, males, in feed, site: lung, lesion: adenoma, dosed 80 weeks, study length 82 weeks",negative (inactive)
same,TD50,"mouse, strain RIII (MTV+), males, in drinking water, site: any site (literature study), lesion: several types, types named in the paper, dosed 104 weeks, study length 104 weeks",4670 mg/kg/day
same,TD50,"mouse, strain RIII (MTV+), males, in drinking water, site: lung, lesion: several types, types named in the paper, dosed 104 weeks, study length 104 weeks",4670 mg/kg/day
same,carcinogen call,"mouse, strain Swiss albino, females, in feed, site: liver, lesion: hepatoma, dosed 76 weeks, study length 76 weeks",negative (inactive)
same,carcinogen call,"mouse, strain Swiss, females, in feed, site: urinary bladder, lesion: anaplastic carcinoma, dosed 91 weeks, study length 91 weeks",negative (inactive)
same,carcinogen call,"mouse, strain Swiss, males, in feed, site: urinary bladder, lesion: one or several types, types not named, dosed 91 weeks, study length 91 weeks",negative (inactive)
same,TD50,"mouse, strain XVII/G, females, in drinking water, site: any site (literature study), lesion: several types, types named in the paper, dosed 104 weeks, study length 104 weeks",587 mg/kg/day
same,TD50,"mouse, strain XVII/G, females, in drinking water, site: liver, lesion: several types, types named in the paper, dosed 104 weeks, study length 104 weeks",16000 mg/kg/day
same,TD50,"mouse, strain XVII/G, females, in drinking water, site: lung, lesion: several types, types named in the paper, dosed 104 weeks, study length 104 weeks",587 mg/kg/day
same,TD50,"rat, strain Sprague-Dawley, both sexes, in feed, site: any site (literature study), lesion: malignant tumor, dosed 130 weeks, study length 130 weeks",30700 mg/kg/day (inactive)
same,carcinogen call,"rat, strain Sprague-Dawley, both sexes, in feed, site: urinary bladder, lesion: papilloma, dosed 130 weeks, study length 130 weeks",negative (inactive)
same,carcinogen call,"rat, strain Sprague-Dawley, both sexes, in feed, site: urinary bladder, lesion: transitional-cell carcinoma, dosed 130 weeks, study length 130 weeks",negative (inactive)
same,TD50,"rat, strain Wistar, both sexes, in feed, site: urinary bladder, lesion: one or several types, types not named, dosed 104 weeks, study length 104 weeks",83900 mg/kg/day
[Cl][Sn][Cl],TD50,"mouse, strain B6C3F1, females, in feed, site: all sites, lesion: lymphoma, histiocytic type, dosed 105 weeks, study length 105 weeks",2550 mg/kg/day
same,TD50,"mouse, strain B6C3F1, females, in feed, site: any site (literature study), lesion: several types, types named in the paper, dosed 105 weeks, study length 105 weeks",386 mg/kg/day
same,TD50,"mouse, strain B6C3F1, females, in feed, site: liver, lesion: hepatocellular adenoma + hepatocellular carcinoma + neoplastic nodule, dosed 105 weeks, study length 105 weeks",1020 mg/kg/day
same,TD50,"mouse, strain B6C3F1, females, in feed, site: liver, lesion: hepatocellular carcinoma, dosed 105 weeks, study length 105 weeks",1420 mg/kg/day
same,TD50,"mouse, strain B6C3F1, females, in feed, site: pituitary gland, lesion: adenoma, dosed 105 weeks, study length 105 weeks",1390 mg/kg/day (inactive)
same,carcinogen call,"mouse, strain B6C3F1, males, in feed, site: any site (literature study), lesion: several types, types named in the paper, dosed 105 weeks, study length 105 weeks",negative (inactive)
same,carcinogen call,"mouse, strain Charles River CD1, both sexes, in drinking water, site: any site (literature study), lesion: benign tumor, dosed 104 weeks, study length 104 weeks",negative (inactive)
same,carcinogen call,"mouse, strain Charles River CD1, both sexes, in drinking water, site: any site (literature study), lesion: malignant tumor, dosed 104 weeks, study length 104 weeks",negative (inactive)
same,carcinogen call,"mouse, strain Charles River CD1, both sexes, in drinking water, site: any site (literature study), lesion: several types, types named in the paper, dosed 104 weeks, study length 104 weeks",negative (inactive)
same,carcinogen call,"mouse, strain Charles River CD1, both sexes, in drinking water, site: lung, lesion: adenoma, dosed 104 weeks, study length 104 weeks",negative (inactive)
same,carcinogen call,"mouse, strain Charles River CD1, both sexes, in drinking water, site: lung, lesion: several types, types named in the paper, dosed 104 weeks, study length 104 weeks",negative (inactive)
same,TD50,"rat, strain Fischer 344, females, in feed, site: any site (literature study), lesion: several types, types named in the paper, dosed 105 weeks, study length 104 weeks",12000 mg/kg/day (inactive)
same,TD50,"rat, strain Fischer 344, females, in feed, site: liver, lesion: hepatocellular adenoma + hepatocellular carcinoma + neoplastic nodule, dosed 105 weeks, study length 104 weeks",676000 mg/kg/day
same,TD50,"rat, strain Fischer 344, males, in feed, site: any site (literature study), lesion: several types, types named in the paper, dosed 104 weeks, study length 104 weeks",180 mg/kg/day
same,TD50,"rat, strain Fischer 344, males, in feed, site: lung, lesion: alveolar/bronchiolar adenoma, dosed 104 weeks, study length 104 weeks",951 mg/kg/day
same,TD50,"rat, strain Fischer 344, males, in feed, site: thyroid gland, lesion: c-cell adenoma + c-cell carcinoma, dosed 104 weeks, study length 104 weeks",87.4 mg/kg/day (inactive)
same,TD50,"rat, strain Fischer 344, males, in feed, site: thyroid gland, lesion: c-cell carcinoma, dosed 104 weeks, study length 104 weeks",405 mg/kg/day
same,carcinogen call,"rat, strain Long-Evans BLU:(LE), both sexes, in drinking water, site: any site (literature study), lesion: malignant tumor, dosed 156 weeks, study length 156 weeks",negative (inactive)
same,carcinogen call,"rat, strain Long-Evans BLU:(LE), both sexes, in drinking water, site: any site (literature study), lesion: one or several types, types not named, dosed 156 weeks, study length 156 weeks",negative (inactive)
same,carcinogen call,"rat, strain Long-Evans BLU:(LE), both sexes, in drinking water, site: liver, lesion: one or several types, types not named, dosed 156 weeks, study length 156 weeks",negative (inactive)
CCOc1ccccc1C(N)=O,TD50,"mouse, strain B6C3F1, females, in feed, site: liver, lesion: several types, types named in the paper, dosed 96 weeks, study length 100 weeks",3310 mg/kg/day
same,TD50,"mouse, strain B6C3F1, males, in feed, site: liver, lesion: several types, types named in the paper, dosed 96 weeks, study length 100 weeks",513 mg/kg/day
CC1=C(C(=O)OCCN(Cc2ccccc2)c2ccccc2)C(c2cccc([N+](=O)[O-])c2)C(P2(=O)OCC(C)(C)CO2)=C(C)N1 (centres undefined),carcinogen call,"mouse, strain B6C3F1, females, in feed, site: any site (literature study), lesion: several types, types named in the paper, dosed 104 weeks, study length 104 weeks",negative (inactive)
same,TD50,"mouse, strain B6C3F1, females, in feed, site: liver, lesion: hepatocellular adenoma, dosed 104 weeks, study length 104 weeks",11500 mg/kg/day (inactive)
same,TD50,"mouse, strain B6C3F1, females, in feed, site: liver, lesion: hepatocellular carcinoma, dosed 104 weeks, study length 104 weeks",7430 mg/kg/day (inactive)
same,carcinogen call,"mouse, strain B6C3F1, females, in feed, site: lung, lesion: alveolar/bronchiolar adenoma, dosed 104 weeks, study length 104 weeks",negative (inactive)
same,TD50,"mouse, strain B6C3F1, females, in feed, site: lung, lesion: alveolar/bronchiolar carcinoma, dosed 104 weeks, study length 104 weeks",12300 mg/kg/day (inactive)
same,TD50,"mouse, strain B6C3F1, females, in feed, site: lymph node, lesion: malignant lymphoma, dosed 104 weeks, study length 104 weeks",276 mg/kg/day (inactive)
same,carcinogen call,"mouse, strain B6C3F1, males, in feed, site: any site (literature study), lesion: several types, types named in the paper, dosed 104 weeks, study length 104 weeks",negative (inactive)
same,carcinogen call,"mouse, strain B6C3F1, males, in feed, site: liver, lesion: hepatocellular adenoma, dosed 104 weeks, study length 104 weeks",negative (inactive)
same,carcinogen call,"mouse, strain B6C3F1, males, in feed, site: liver, lesion: hepatocellular carcinoma, dosed 104 weeks, study length 104 weeks",negative (inactive)
same,carcinogen call,"mouse, strain B6C3F1, males, in feed, site: lung, lesion: alveolar/bronchiolar adenoma, dosed 104 weeks, study length 104 weeks",negative (inactive)
same,carcinogen call,"mouse, strain B6C3F1, males, in feed, site: lung, lesion: alveolar/bronchiolar carcinoma, dosed 104 weeks, study length 104 weeks",negative (inactive)
same,TD50,"rat, strain F344/DuCrj, females, in feed, site: any site (literature study), lesion: several types, types named in the paper, dosed 104 weeks, study length 104 weeks",244 mg/kg/day (inactive)
same,carcinogen call,"rat, strain F344/DuCrj, females, in feed, site: liver, lesion: hepatocellular adenoma, dosed 104 weeks, study length 104 weeks",negative (inactive)
same,carcinogen call,"rat, strain F344/DuCrj, males, in feed, site: any site (literature study), lesion: several types, types named in the paper, dosed 104 weeks, study length 104 weeks",negative (inactive)
same,TD50,"rat, strain F344/DuCrj, males, in feed, site: liver, lesion: several types, types named in the paper, dosed 104 weeks, study length 104 weeks",2310 mg/kg/day (inactive)
OC[C@H]1OC(OC[C@H]2O[C@H](O)[C@H](O)[C@@H](O)[C@@H]2O)[C@H](O)[C@@H](O)[C@@H]1O (some centres undefined),carcinogen call,"mouse, strain Charles River CD1, females, in feed, site: liver, lesion: one or several types, types not named, dosed 80 weeks, study length 80 weeks",negative (inactive)
same,TD50,"mouse, strain Charles River CD1, males, in feed, site: liver, lesion: hepatocellular adenoma, dosed 80 weeks, study length 80 weeks",46300 mg/kg/day (inactive)
